Tests used:
[1] = system: Mus musculus; experiment: […] activity in ip dosed albino CF1 mouse assessed as potentiation of gamma-butyrolactone-induced sleep; assay type: functional
[2] = system: Mus musculus; experiment: Inhibition of apomorphine-induced cage climbing in ip dosed albino CF1 mouse compound administered prior to challenge measured for 5 mins after 5 mins of challenge; assay type: functional
[3] = system: Mus musculus; experiment: Reduction of hypoxic stress in ip dosed albino CF1 mouse assessed as prolongation of hypoxic survival time; assay type: functional
[4] = system: Mus musculus; experiment: Potentiation of apomorphine-induced gnawing in ip dosed albino CF1 mouse; assay type: organism-based
[5] = system: Mus musculus; experiment: Potentiation of yohimbine toxicity in ip dosed aggregated albino CF1 mouse; assay type: organism-based
[6] = system: Mus musculus; experiment: Inhibition of oxotremorine-induced hypothermia in ip dosed albino CF1 mouse; assay type: functional
[7] = system: Mus musculus; experiment: Hypothermic activity in ip dosed albino CF1 mouse assessed as effect on body temperature measured after 45 mins; assay type: functional; details: 0.75 h
[8] = system: Mus musculus; experiment: Anticonvulsant activity in ip dosed albino CF1 mouse assessed as protection against pentylenetetrazole-induced clonic convulsions; assay type: functional
[9] = system: Mus musculus; experiment: Anticonvulsant activity in ip dosed albino CF1 mouse assessed as inhibition of bicucullin-induced tonic extensor convulsions; assay type: functional
[10] = system: Mus musculus; experiment: Inhibition of amphetamine aggregation toxicity in ip dosed albino CF1 mouse compound administered 1 hr prior to challenge measured after 2 hrs; assay type: functional

Structure (SMILES)	ED50 [1] [mg/kg]	ED50 [2] [mg/kg]	ED50 [3] [mg/kg]	ED50 [4] [mg/kg]	ED50 [5] [mg/kg]	ED50 [6] [mg/kg]	ED50 [7] [mg/kg]	ED50 [8] [mg/kg]	ED50 [9] [mg/kg]	ED50 [10] [mg/kg]
Nc1nnc2n1-c1ccc(Cl)cc1C(c1ccccc1)=NC2	2	> 50	> 50	> 50	> 50	> 50	9	14	20	> 50
CSc1nnc2n1-c1ccc(Cl)cc1C(c1ccccc1)=NC2	0.8	> 50	10	> 50	> 50	> 50	10	8	10	> 50
FC(F)(F)c1nnc2n1-c1ccc(Cl)cc1C(c1ccccc1)=NC2	> 50	> 50	> 50	> 50	> 50	> 50	> 50	20	> 50	> 50
COC(=O)Cc1nnc2n1-c1ccc(Cl)cc1C(c1ccccc1)=NC2	> 50	> 50	> 50	> 50	> 50	> 50	> 50	> 50	> 50	> 50
CN(C)C(=O)Cc1nnc2n1-c1ccc(Cl)cc1C(c1ccccc1)=NC2	10	> 50	> 50	> 50	> 50	> 50	> 50	5.6	40	> 50
OCCc1nnc2n1-c1ccc(Cl)cc1C(c1ccccc1)=NC2	> 50	> 50	4	> 50	> 50	> 50	30	4	> 50	> 50
CC1N=C(c2ccccc2)c2cc(Cl)ccc2-n2c(Br)nnc21 (stereo not given)	3.1	> 50	> 50	> 50	> 50	> 50	> 50	3.7	1.9	> 50
Clc1ccccc1C1=NCc2nncn2-c2ccccc21	12.5	> 50	> 50	> 50	> 50	> 50	> 50	> 50	42	> 50
CC1N=C(c2ccccc2)c2cc(Cl)ccc2-n2cnnc21 (stereo not given)	0.6	> 50	42	> 50	> 50	7.4	10.5	3.7	4.4	> 50
Clc1ccccc1C1=NCc2nnc(Br)n2-c2ccccc21	6.2	> 50	8.8	> 50	> 50	> 50	> 50	10.5	25	> 50
Clc1ccc2c(c1)C(c1ccccc1)=NCc1nnc(N3CCN(c4ccccc4)CC3)n1-2	> 50	> 50	> 50	> 50	> 50	> 50	> 50	> 50	> 50	> 50
OCCN1CCN(c2nnc3n2-c2ccc(Cl)cc2C(c2ccccc2)=NC3)CC1	1.6	> 50	> 50	25	> 50	> 50	> 50	42	8.8	> 50
Clc1ccc2c(c1)C(c1ccccc1)=NCc1nnc(N3CCNCC3)n1-2	> 50	> 50	> 50	> 50	> 50	34	> 50	> 50	> 50	> 50
CN(C)CCN(C)c1nnc2n1-c1ccc(Cl)cc1C(c1ccccc1)=NC2	12.5	> 50	> 50	> 50	> 50	> 50	40	30	42	> 50
CN1CCN(c2nnc3n2-c2ccc(Br)cc2C(c2ccccn2)=NC3)CC1	3.1	> 50	21	3.7	35.4	> 50	> 50	12.5	8.8	> 50
CN1CCN(c2nnc3n2-c2ccccc2C(c2ccccc2Cl)=NC3)CC1	> 25	4.4	1.1	> 25	> 25	> 25	0.2	6.2	> 25	> 25
CN1CCN(c2nnc3n2-c2ccccc2C(c2ccccc2)=NC3)CC1	> 50	25	> 50	> 50	> 50	35.4	12.5	14.9	> 50	> 50
c1ccc(C2=NCc3nnc(N4CCOCC4)n3-c3ccccc32)cc1	20	> 50	> 50	> 50	> 50	> 50	> 50	9	> 50	> 50
Clc1ccc2c(c1)C(c1ccccc1)=NCc1nnc(N3CCCC3)n1-2	3	> 50	> 50	> 50	> 50	30	40	4.5	4	> 50
CCN(CC)CCOc1nnc2n1-c1ccc(Cl)cc1C(c1ccccc1)=NC2	2.2	> 50	40	> 50	42	> 50	> 50	8.8	12.5	> 50
Clc1ccc2c(c1)C(c1ccccc1)=NCc1nnc(C(Cl)Cl)n1-2	3	> 50	> 50	> 50	> 50	> 50	> 50	8	10	> 50
Cc1nnc2n1-c1ccc(Cl)cc1C(c1ccccc1)=NC2 [ALPRAZOLAM]	0.08	> 50	0.2	> 50	> 50	> 50	> 50	0.1	0.2	> 50
CN1C(=O)CN=C(c2ccccc2)c2cc(Cl)ccc21 [DIAZEPAM]	0.035	> 50	0.2	> 50	> 50	> 50	14.9	0.1	2.6	> 50

— ChEMBL document CHEMBL3244037, “6-Aryl-4H-s-triazolo[4,3-a][1,4]benzodiazepines. Influence of 1-substitution on pharmacological activity” (J Med Chem, 1979)
